{
  "source": "PubChem BioAssay (NCI)",
  "assay_in_all_cases": "NCI-60 cell line screen, 48 h",
  "key": {"[1]": {"system": "NCI-H460 lung"}, "[2]": {"system": "NCI-H23 lung"}, "[3]": {"system": "SNB-19 CNS"}, "[4]": {"system": "SR leukemia"}, "[5]": {"system": "HT29 colon"}, "[6]": {"system": "OVCAR-5 ovarian"}, "[7]": {"system": "SW-620 colon"}, "[8]": {"system": "PC-3 prostate"}, "[9]": {"system": "MOLT-4 leukemia"}, "[10]": {"system": "MCF7 breast"}, "[11]": {"system": "SN12C renal"}, "[12]": {"system": "UACC-257 melanoma"}, "[13]": {"system": "MALME-3M melanoma"}, "[14]": {"system": "SF-295 CNS"}, "[15]": {"system": "UO-31 renal"}, "[16]": {"system": "BT-549 breast"}, "[17]": {"system": "EKVX NSCLC"}, "[18]": {"system": "M14 melanoma"}, "[19]": {"system": "COLO 205 colon"}, "[20]": {"system": "CAKI-1 renal"}, "[21]": {"system": "MDA-MB-231 breast"}, "[22]": {"system": "MDA-N"}, "[23]": {"system": "786-0 renal"}, "[24]": {"system": "OVCAR-8 ovarian"}, "[25]": {"system": "HCT-116 colon"}, "[26]": {"system": "CCRF-CEM leukemia"}, "[27]": {"system": "HL-60(TB) leukemia"}, "[28]": {"system": "HCT-15 colon"}, "[29]": {"system": "HOP-62 NSCLC"}, "[30]": {"system": "KM12 colon"}, "[31]": {"system": "DU-145 prostate"}, "[32]": {"system": "ACHN renal"}, "[33]": {"system": "UACC-62 melanoma"}, "[34]": {"system": "HCC-2998 colon"}, "[35]": {"system": "SF-268 CNS"}, "[36]": {"system": "TK-10 renal"}, "[37]": {"system": "MDA-MB-435"}, "[38]": {"system": "HS 578T breast"}, "[39]": {"system": "K-562 leukemia"}, "[40]": {"system": "NCI-H522 lung"}, "[41]": {"system": "OVCAR-3 ovarian"}, "[42]": {"system": "T-47D breast"}, "[43]": {"system": "LOX IMVI melanoma"}, "[44]": {"system": "IGROV1 ovarian"}, "[45]": {"system": "RXF 393 renal"}, "[46]": {"system": "SK-MEL-2 melanoma"}, "[47]": {"system": "A549 NSCLC"}, "[48]": {"system": "SK-OV-3 ovarian"}, "[49]": {"system": "SK-MEL-5 melanoma"}, "[50]": {"system": "SF-539 CNS"}, "[51]": {"system": "SNB-75 CNS"}, "[52]": {"system": "NCI/ADR-RES ovarian"}, "[53]": {"system": "OVCAR-4 ovarian"}},
  "note": "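Results reflect a 48-hour exposure of cells in 96-well plates to compound at five concentrations. TGI: concentration producing complete growth inhibition.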",
  "data": [
    {"smiles": "CCNCCNc1c2ccccc2nc2ccccc12", "values": [
      {"measurement": "TGI", "setting": "[1]", "result": 1.54, "unit": "µM"},
      {"measurement": "TGI", "setting": "[2]", "result": 3.36, "unit": "µM"},
      {"measurement": "TGI", "setting": "[3]", "result": 4.69, "unit": "µM"},
      {"measurement": "TGI", "setting": "[4]", "result": 4.18, "unit": "µM"},
      {"measurement": "TGI", "setting": "[5]", "result": "> 100", "unit": "µM"},
      {"measurement": "TGI", "setting": "[6]", "result": 7.62, "unit": "µM"},
      {"measurement": "TGI", "setting": "[7]", "result": 2.84, "unit": "µM"},
      {"measurement": "TGI", "setting": "[8]", "result": 3.95, "unit": "µM"},
      {"measurement": "TGI", "setting": "[9]", "result": "> 100", "unit": "µM"},
      {"measurement": "TGI", "setting": "[10]", "result": 3.4, "unit": "µM"},
      {"measurement": "TGI", "setting": "[11]", "result": 4.91, "unit": "µM"},
      {"measurement": "TGI", "setting": "[12]", "result": 3.46, "unit": "µM"},
      {"measurement": "TGI", "setting": "[13]", "result": 4.6, "unit": "µM"},
      {"measurement": "TGI", "setting": "[14]", "result": 3.3, "unit": "µM"},
      {"measurement": "TGI", "setting": "[15]", "result": 5.02, "unit": "µM"},
      {"measurement": "TGI", "setting": "[16]", "result": 10.2, "unit": "µM"},
      {"measurement": "TGI", "setting": "[17]", "result": 21.9, "unit": "µM"},
      {"measurement": "TGI", "setting": "[18]", "result": 3.05, "unit": "µM"},
      {"measurement": "TGI", "setting": "[19]", "result": 3.42, "unit": "µM"},
      {"measurement": "TGI", "setting": "[20]", "result": 3.48, "unit": "µM"},
      {"measurement": "TGI", "setting": "[21]", "result": 3.02, "unit": "µM"},
      {"measurement": "TGI", "setting": "[22]", "result": 2.81, "unit": "µM"},
      {"measurement": "TGI", "setting": "[23]", "result": 13.4, "unit": "µM"},
      {"measurement": "TGI", "setting": "[24]", "result": 7.06, "unit": "µM"},
      {"measurement": "TGI", "setting": "[25]", "result": 7.99, "unit": "µM"},
      {"measurement": "TGI", "setting": "[26]", "result": 8.63, "unit": "µM"},
      {"measurement": "TGI", "setting": "[27]", "result": "> 100", "unit": "µM"},
      {"measurement": "TGI", "setting": "[28]", "result": 5.83, "unit": "µM"},
      {"measurement": "TGI", "setting": "[29]", "result": 4.21, "unit": "µM"},
      {"measurement": "TGI", "setting": "[30]", "result": 4.79, "unit": "µM"},
      {"measurement": "TGI", "setting": "[31]", "result": 7.42, "unit": "µM"},
      {"measurement": "TGI", "setting": "[32]", "result": 1.37, "unit": "µM"},
      {"measurement": "TGI", "setting": "[33]", "result": 3.26, "unit": "µM"},
      {"measurement": "TGI", "setting": "[34]", "result": 1.09, "unit": "µM"},
      {"measurement": "TGI", "setting": "[35]", "result": 5.52, "unit": "µM"},
      {"measurement": "TGI", "setting": "[36]", "result": 23.3, "unit": "µM"},
      {"measurement": "TGI", "setting": "[37]", "result": 2.59, "unit": "µM"},
      {"measurement": "TGI", "setting": "[38]", "result": 5.28, "unit": "µM"},
      {"measurement": "TGI", "setting": "[39]", "result": 5.66, "unit": "µM"},
      {"measurement": "TGI", "setting": "[40]", "result": 4.69, "unit": "µM"},
      {"measurement": "TGI", "setting": "[41]", "result": 24.5, "unit": "µM"},
      {"measurement": "TGI", "setting": "[42]", "result": 8.41, "unit": "µM"},
      {"measurement": "TGI", "setting": "[43]", "result": 2.95, "unit": "µM"},
      {"measurement": "TGI", "setting": "[44]", "result": 9.82, "unit": "µM"},
      {"measurement": "TGI", "setting": "[45]", "result": 3.31, "unit": "µM"},
      {"measurement": "TGI", "setting": "[46]", "result": 3.63, "unit": "µM"},
      {"measurement": "TGI", "setting": "[47]", "result": 4.95, "unit": "µM"},
      {"measurement": "TGI", "setting": "[48]", "result": 12.2, "unit": "µM"},
      {"measurement": "TGI", "setting": "[49]", "result": 7.41, "unit": "µM"},
      {"measurement": "TGI", "setting": "[50]", "result": 2.21, "unit": "µM"},
      {"measurement": "TGI", "setting": "[51]", "result": 3.52, "unit": "µM"},
      {"measurement": "TGI", "setting": "[52]", "result": 19.5, "unit": "µM"},
      {"measurement": "TGI", "setting": "[53]", "result": 11.1, "unit": "µM"}
    ]}
  ]
}
